Measurements: article PMC7792806, “Development of Second Generation Activity-Based Chemical Probes for Sirtuins” (Molecules, 2020)

Legend:
[1] = system: HEK293 cells overexpressing SIRT5; test: Cellular NAD+ measurement, NAD+ cycling assay; assay type: cell-based, human; details: 1 mM for 6 h
Protocol: HEK293 cells overexpressing SIRT5 were subjected to a treatment known to increase the cellular NAD^+ level.
To the cell pellet was added 30 μL of ice-cold 7% perchloric acid; then, the sample was vortexed for 30 s and then sonicated on ice for 5 min. The vortex–sonication cycle was repeated three times. Then, the sample was centrifuged for 3 min at room temperature. Clear supernatant was taken out and neutralized to pH 7 with 3 M NaOH and 1 M phosphate buffer (pH 9). NAD^+ level was then measured using NAD^+ cycling assay as described previously [14].

[2] = target: T1, SIRT5 (Homo sapiens, UniProt Q9NXA8); test: In-cell labeling of SIRT5 with probe 2B, cellular imaging; assay type: cell-based; details: 1 mM NR for 6 h, then 50 μM probe 2B, 15 min irradiation at 365 nm; compared with control cells
T1 construct: endogenous in cells; host or cells: HEK293
T1 sequence (Q9NXA8 37-310): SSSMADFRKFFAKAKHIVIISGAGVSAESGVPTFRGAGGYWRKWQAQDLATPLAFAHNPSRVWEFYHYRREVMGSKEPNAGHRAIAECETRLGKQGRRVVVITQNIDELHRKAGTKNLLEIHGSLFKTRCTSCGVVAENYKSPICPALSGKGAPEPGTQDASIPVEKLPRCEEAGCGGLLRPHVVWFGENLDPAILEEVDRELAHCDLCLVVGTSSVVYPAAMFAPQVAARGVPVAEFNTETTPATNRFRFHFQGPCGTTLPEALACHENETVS
Protocol: HEK293 cells overexpressing SIRT5 were subjected to a treatment known to increase the cellular NAD^+ level. […] Then, the cells were incubated with 50 μM probe 2B and irradiated at 365 nm for 15 min on ice. Subsequently, the cells were treated with freshly prepared “click” staining mix as described in “Materials and Methods”. After the “click” reaction, cells were incubated with anti-SIRT5 antibody before the images were acquired.
Cells were seeded in 35 mm glass-bottom dishes (MatTek, Ashland, MA, USA) and grew until 70 to 80% confluence. Then, the cells were incubated in the presence or absence of 1 mM NR for 6 h before the medium was discarded. The cells were gently rinsed with fresh growth medium three times. Subsequently, the cells were incubated with 50 μM probe 2B for 1 h before the culture dishes were placed on ice. The cells were irradiated at 365 nm in cold room for 15 min followed by fixation with 4% paraformaldehyde and permeabilization with 0.2% Triton X-100 in PBS. Then, the cells were treated with freshly prepared “click” staining mix (10 μM TAMRA-azide, 1 mM CuSO4 and 1 mM TBTA in 2 mL of deionized water), followed by the addition of 2 mM TCEP. […]
Fluorescence microscopy was carried out on a Leica TCS SP5 confocal microscope (Leica Microsystems, Mannheim, Germany). […] Images were acquired and processed using Leica Application Suite Advanced Fluorescence (LAS AF) software.

[3] = target: T2, SIRT1 (Homo sapiens, UniProt Q96EB6); test: Sirtuin inhibition assay (HPLC), SIRT1; assay type: biochemical; details: ratio of IC50s
T2 construct: Plasmids of SIRT1 (full length); made in house
T2 sequence (Q96EB6 1-747): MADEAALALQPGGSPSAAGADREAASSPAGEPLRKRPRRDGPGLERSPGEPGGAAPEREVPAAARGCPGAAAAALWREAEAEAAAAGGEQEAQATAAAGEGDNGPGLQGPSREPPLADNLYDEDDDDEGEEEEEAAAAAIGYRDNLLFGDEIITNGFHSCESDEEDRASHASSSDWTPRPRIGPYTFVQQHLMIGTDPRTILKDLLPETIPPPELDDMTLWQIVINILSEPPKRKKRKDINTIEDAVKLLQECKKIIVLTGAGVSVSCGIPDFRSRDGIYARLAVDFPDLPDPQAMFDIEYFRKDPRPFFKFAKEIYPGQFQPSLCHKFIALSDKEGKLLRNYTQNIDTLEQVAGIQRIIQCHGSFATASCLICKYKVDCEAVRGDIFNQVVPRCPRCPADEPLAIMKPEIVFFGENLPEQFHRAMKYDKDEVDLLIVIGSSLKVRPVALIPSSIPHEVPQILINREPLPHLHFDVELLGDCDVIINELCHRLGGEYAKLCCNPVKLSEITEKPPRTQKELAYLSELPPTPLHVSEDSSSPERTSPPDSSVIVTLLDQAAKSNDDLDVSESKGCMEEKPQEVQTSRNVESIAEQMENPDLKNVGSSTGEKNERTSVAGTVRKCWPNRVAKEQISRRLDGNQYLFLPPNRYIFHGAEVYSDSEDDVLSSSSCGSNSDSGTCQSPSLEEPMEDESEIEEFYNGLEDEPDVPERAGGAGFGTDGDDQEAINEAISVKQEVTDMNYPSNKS
Protocol: (§1) Plasmids of SIRT1 (full length), SIRT2 (38-356), SIRT3 (102-399), and SIRT5 (34-302) were generous gifts from Dr. Hening Lin (Cornell University, Ithaca, NY, USA). SIRT6 was a gift from Cheryl Arrowsmith (Addgene plasmid #28271). The proteins were expressed and purified according to previously published protocols. The identity of the protein was confirmed by tryptic digestion followed by LC-MS/MS analysis performed at the Vermont Genetic Network (VGN) Proteomics Facility. Protein concentrations were determined by Bradford assay (Thermo Fisher Scientific, Rockford, IL, USA).
(§2) A typical reaction contained 500 μM NAD^+ and 500 μM peptide substrate (H3K9Ac for SIRT2, SIRT3 and SIRT6, p53K382Ac for SIRT1 and SIRT5) of varying concentrations of a small molecule probe in 100 mM phosphate buffer pH 7.5. The reactions were initiated by the addition of 10 μM of sirtuin and were incubated at 37 °C before being quenched by 8 μL of 10% TFA. The incubation time was controlled so that the conversion of substrate was less than 15%. The samples were then injected on an HPLC fitted to a Macherey-Nagel Nucleosil C18 column. NAD^+, NAM and AADPR (acetyl-ADP-ribose) peaks were resolved using a gradient of 0 to 20% methanol in 20 mM ammonium acetate. Chromatograms were analyzed at 260 nm. Reactions were quantified by integrating areas of peaks corresponding to NAD^+ and AADPR. Rates were plotted as a function of small molecule probe concentration, and points were fitted to the following equation:ν(%) = ν0(%) − [ν0(%)(10^x)/(10^x + IC50)](1) where ν(%) represents the turnover rate expressed as percent enzymatic activity remaining, and ν0(%) represents the uninhibited turnover rate expressed as an enzymatic activity of 100%. The variable x represents the log[probe] in nanomolar. IC50 values were derived from this equation.

[4] = target: T3, SIRT3 (Homo sapiens, UniProt Q9NTG7); test: Sirtuin inhibition assay (HPLC), SIRT3; assay type: biochemical; details: ratio of IC50s
T3 construct: SIRT3 (102-399); made in house
T3 sequence (Q9NTG7 102-399): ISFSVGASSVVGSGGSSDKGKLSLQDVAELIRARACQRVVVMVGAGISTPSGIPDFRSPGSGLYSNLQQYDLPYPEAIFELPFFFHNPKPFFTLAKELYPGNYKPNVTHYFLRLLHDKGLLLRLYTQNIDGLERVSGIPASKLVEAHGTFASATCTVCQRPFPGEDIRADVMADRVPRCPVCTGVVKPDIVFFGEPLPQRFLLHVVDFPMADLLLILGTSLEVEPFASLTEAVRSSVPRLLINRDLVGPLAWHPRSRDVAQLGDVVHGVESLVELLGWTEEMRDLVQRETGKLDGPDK
Protocol: as §1, §2

[5] = system: SIRT1, SIRT2, SIRT3, and SIRT6; test: Labeling of individual recombinant sirtuins, in-gel fluorescence; assay type: biochemical, human; details: Figure S1
Protocol: (§3) The improved inhibitory effects of the 2nd generation ABPs prompted us to evaluate the labeling efficiency of these new probes. We first compared the abilities of benzophenone-based probe 1A and diazirine-based probe 2A to label recombinant SIRT2. The enzyme was incubated with NAD^+ and the probe, and then irradiated at 365 nm for 1 h. Subsequently, the sample was conjugated to TAMRA-azide via Cu(I)-catalyzed “click” reaction. The sample was resolved by SDS-PAGE and detected by in-gel fluorescence scanning.
A typical labeling experiment was performed as follows: in a 0.7 mL Eppendorf tube, purified recombinant human sirtuin (10 μM) was incubated with NAD^+ (500 μM) and activity-based probe at 37 °C for 10 min. The sample was transferred to a clear-bottom 96-well plate, placed on ice, and irradiated at 365 nm with a UV-lamp in a cold room. Subsequently, ingredients of the “click-chemistry” including azide-fluor 545, CuSO4, reducing agent (tris(2-carboxyethyl)phosphine, TCEP) and stabilizing agent (tris[(1-benzyl-1H-1,2,3-triazol-4-yl)methyl]amine, TBTA) were added, and the sample was gently agitated at 250 rpm on a microshaker at room temperature for 30 min. Then, the sample was resolved by SDS-PAGE. […] Then, destained gel was analyzed with in-gel fluorescence scanning using a Biorad ChemiDoc MP imager (excitation 532 nm, 580 nm cut-off filter and 30 nm band-pass). […]

[6] = target: T4, SIRT2 (Homo sapiens, UniProt Q8IXJ6); test: Photoaffinity labeling of recombinant SIRT2, in-gel fluorescence; assay type: biochemical
T4 construct: SIRT2 (38-356); made in house
T4 sequence (Q8IXJ6 38-356): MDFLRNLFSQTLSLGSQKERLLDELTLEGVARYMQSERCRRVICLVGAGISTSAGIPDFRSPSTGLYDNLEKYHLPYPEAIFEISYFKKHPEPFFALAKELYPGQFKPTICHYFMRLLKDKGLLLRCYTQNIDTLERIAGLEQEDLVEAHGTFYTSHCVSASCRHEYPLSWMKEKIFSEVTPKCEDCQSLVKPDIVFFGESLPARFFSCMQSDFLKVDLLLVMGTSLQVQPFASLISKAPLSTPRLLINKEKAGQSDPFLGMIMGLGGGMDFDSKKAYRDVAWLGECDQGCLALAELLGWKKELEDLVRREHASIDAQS
Protocol: as §3
Figure 3 Comparison of labeling efficiencies of probes 1A and 2A. (A) Concentration-dependent labeling of SIRT2. SIRT2 (10 μM) was incubated with 500 μM NAD^+ and indicated concentrations of probe 1A or 2A in 100 mM phosphate buffer pH 7.5. The samples were incubated at 37 °C for 10 min, subjected to UV irradiation for 1 h, and then “click” conjugated to TAMRA-azide as described in “Materials and Methods”; (B) and (C) Time-dependent labeling of SIRT2 by probe 2A. The labeling reached plateau within 20 min.
A typical labeling experiment was performed as follows: in a 0.7 mL Eppendorf tube, purified recombinant human sirtuin (10 μM) was incubated with NAD^+ (500 μM) and activity-based probe at 37 °C for 10 min. […] Then, destained gel was analyzed with in-gel fluorescence scanning using a Biorad ChemiDoc MP imager (excitation 532 nm, 580 nm cut-off filter and 30 nm band-pass). […]

[7] = system: SIRT1; test: Acetylation level of p53 lysine 382 in cells; assay type: cell-based; details: Figure S3

| labeling intensity of SIRT5 by probe 2B in cells [2] | increased inhibition of SIRT1 compared with probe 1A [3] | increased inhibition of SIRT3 compared with probe 1A [4] | labeling intensity of SIRT2 ([6]; 10 μM SIRT2, 500 μM NAD+, 1 h irradiation at 365 nm, all concentrations examined) | irradiation time to saturation of SIRT2 labeling ([6]; UV irradiation at 365 nm) | SMILES | increase of cellular NAD+ concentration [1] | labeling of recombinant sirtuins [5] | acetylation level of p53 lysine 382, combined with TSA [7] |
| --- | --- | --- | --- | --- | --- | --- | --- | --- |
| increased labeling intensity |  |  |  |  | NC(=O)c1ccc[n+]([C@@H]2O[C@H](CO)[C@@H](O)[C@H]2O)c1 [NR, Nicotinamide riboside] | 170% |  |  |
|  | 3 fold | 2 fold | more intensively than probe 1A | ≤ 20 min | C#CCCCC1(CCC(=O)N[C@@H](CCCCNC(C)=S)C(=O)N[C@@H](C)C(=O)N[C@@H](C)C(=O)OC)N=N1 [Probe 2A] |  | labeled SIRT1, SIRT2, SIRT3, and SIRT6 to different extents in dose-dependent manners | increase the acetylation level of p53 lysine 382 |
